Test results: patent publication US6168939A, “Endopeptidase produced by Lactobacillus helveticus” (priority 1995, dated 2001)
Entries after “also recorded” stand apart in the source; their conditions may differ. Numbered stars: 1 amine (or outer) side, 2 acyl side, 3 side chain; on linkers, the order of the positions; unused ones are H or OH. Ends that are not written are not given here. Peptide text beside a SMILES is read from it. * marks the point of attachment. pNA = O=[N+]([O-])c1ccc(N*)cc1; Suc = O=C(CCC(=O)[*:2])[*:1]; MeOSuc = COC(=O)CCC(=O)*

T1: endopeptidase produced by Lactobacillus helveticus (Lactobacillus helveticus, UniProt Q6UP05)
T1 construct: N-terminus […]
T1 sequence (Q6UP05 1-643): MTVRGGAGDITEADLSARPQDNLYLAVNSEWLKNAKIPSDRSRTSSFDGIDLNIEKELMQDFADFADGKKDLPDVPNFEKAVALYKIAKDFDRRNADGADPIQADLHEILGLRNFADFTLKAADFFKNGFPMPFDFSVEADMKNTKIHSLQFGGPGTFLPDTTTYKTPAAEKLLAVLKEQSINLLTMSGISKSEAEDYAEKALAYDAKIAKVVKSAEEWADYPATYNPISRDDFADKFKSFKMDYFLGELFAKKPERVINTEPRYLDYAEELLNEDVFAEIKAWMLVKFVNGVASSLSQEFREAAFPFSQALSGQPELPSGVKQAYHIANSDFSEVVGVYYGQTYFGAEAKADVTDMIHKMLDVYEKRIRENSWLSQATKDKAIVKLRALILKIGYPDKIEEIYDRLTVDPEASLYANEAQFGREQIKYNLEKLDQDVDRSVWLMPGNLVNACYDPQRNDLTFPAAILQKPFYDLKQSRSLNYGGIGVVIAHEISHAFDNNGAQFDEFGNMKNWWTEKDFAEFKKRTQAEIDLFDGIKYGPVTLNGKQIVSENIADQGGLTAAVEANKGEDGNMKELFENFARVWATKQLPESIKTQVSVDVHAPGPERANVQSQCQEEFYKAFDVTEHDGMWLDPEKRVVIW

B1: β-Casein: casein protein substrate (protein, UniProt P02666 16-224, looked up)
Beta-casein: RELEELNVPGEIVESLSSSEESITRINKKIEKFQSEEQQQTEDELQDKIHPFAQTQSLVYPFPGPIPNSLPQNIPPLTQTPVVVPPFLQPEVMGVSKVKEAMAPKHKEMPFPKYPVEPFTESQSLTLTDVENLHLPLPLLQSWMHQPHQPLPPTVMFPPQSVLSLSQSKVLPVPQKAVPYPQRDMPIQAFLLYQEPVLGPVRGPFPIIV
B2: α51 -Casein: casein protein substrate (probably αs1-casein) (protein, UniProt P02662 16-214, looked up)
Alpha-S1-casein: RPKHPIKHQGLPQEVLNENLLRFFVAPFPEVFGKEKVNELSKDIGSESTEDQAMEDIKQMEAESISSSEEIVPNSVEQKHIQKEDVPSERYLGYLEQLLRLKKYKVPQLEIVPNSAEERLHSMKEGIHAQQKEPMIGVNQELAYFYPELFRQFYQLDAYPSGAWYYVPLGTQYTDAPSFSDIPNPIGSENSEKTTMPLW

target: T1, endopeptidase produced by Lactobacillus helveticus; assay: Substrate specificity: hydrolysis of substrates by the endopeptidase; assay type: biochemical; set-up: key: + represents that a substrate was hydrolyzed; - represents that a substrate was not hydrolyzed; conditions: 2 to 5 mM substrate, 50 mM HEPES pH 7.0, 30° C., 5.0 hrs
Procedure: The substrate specificity of the endopeptidase of the present invention was determined. In 200 μl of 2 to 5 mM substrate in 50 mM HEPES buffer, pH 7.0, 10 μl of the endopeptidase solution of the present invention in 50 mM HEPES buffer, pH 7.0, at five μg/ml was added and incubated at 30° C. for 5.0 hrs. Then, the reaction mixture was applied to reversed phase chromatography and eluted using linear increase of concentration of acetonitrile in 0.1% trifluoroacetic acid from zero to 60%. The hydrolysis was determined from the decrease of the peak area of the substrate and/or the appearance of a new peak(s) at 214 nm on the chromatogram.

Molecule	Hydrolysis
β-Casein, f203-209: β-Casein fragment 203-209, 7 amino acid residues (GPFPIIV; UniProt P02666 218-224, looked up, fragment)	+
κ-Casein: casein protein substrate	-
COC(=O)CCC(=O)N[C@@H](CCCNC(=N)N)C(=O)N1CCC[C@H]1C(=O)N[C@@H](Cc1ccc(O)cc1)C(=O)Nc1ccc([N+](=O)[O-])cc1 [MeO-Suc-Arg-Pro-Tyr-pNA] (MeOSuc-Arg-Pro-Tyr-pNA)	-
Phe-Met	-
Angiotensin (DRVYIHPFHL; Angiotensin-1; UniProt P01019 25-34, looked up)	+
Met-Gly-Gly	-
Tyr-Gly-Gly	-
CC(C)C[C@H](NC(=O)[C@@H]1CCCN1C(=O)[C@H](C)NC(=O)[C@H](C)NC(=O)CCC(=O)O)C(=O)Nc1ccc([N+](=O)[O-])cc1 [Suc-Ala-Ala-Pro-Leu-pNA] (Suc-AAPL-pNA)	-
Dynorphin A	+
Parathyroid hormone, human, f13-34: human parathyroid hormone fragment 13-34, 22 amino acid residues (KHLNSMERVEWLRKKLQDVHNF; Parathyroid hormone; UniProt P01270 44-65, looked up, fragment)	+
Parathyroid hormone, human, f1-44: human parathyroid hormone fragment 1-44, 44 amino acid residues (SVSEIQLMHNLGKHLNSMERVEWLRKKLQDVHNFVALGAPLAPR; Parathyroid hormone; UniProt P01270 32-75, looked up, fragment)	-
CSCC[C@H](NC(=O)[C@H](Cc1ccccc1)NC(=O)CNC(=O)CNC(=O)[C@@H](N)Cc1ccc(O)cc1)C(=O)O [Met-Enkephalin]	+
Phe-Val	-
Parathyroid hormone, human, f1-34: human parathyroid hormone fragment 1-34, 34 amino acid residues	+
Ala-Ala-Ala-Ala-Ala-Ala	+
Parathyroid hormone, human, f1-38: human parathyroid hormone fragment 1-38, 38 amino acid residues (SVSEIQLMHNLGKHLNSMERVEWLRKKLQDVHNFVALG; Parathyroid hormone; UniProt P01270 32-69, looked up, fragment)	-
CSCC[C@H](NC(=O)[C@H](CC(C)C)NC(=O)CNC(=O)[C@H](Cc1ccccc1)NC(=O)[C@H](Cc1ccccc1)NC(=O)[C@H](CCC(N)=O)NC(=O)[C@H](CCC(N)=O)NC(=O)[C@@H]1CCCN1C(=O)[C@H](CCCCN)NC(=O)[C@@H]1CCCN1C(=O)[C@@H](N)CCCNC(=N)N)C(N)=O [Substance P]	+
Leu-Leu-Leu	+
Pro-Gly-Gly	-
Bzl-Cys-pNA	-
Gly-Pro-Gly-Gly (GPGG)	-

Molecule	Hydrolysis
Ala-Ala-Ala-Ala-Ala	+
Pro-Gly-Lys-Ala-Arg (PGKAR)	-
Ala-Pro-pNA	-
Insulin β-chain	+
Pro-Ala	-
O=C(Nc1ccc([N+](=O)[O-])cc1)[C@@H]1CCCN1 [Pro-pNA]	-
Leu-Leu	-
β-Casomorphin	-
Neurotensin	+
O=C(O)CCC(=O)N[C@@H](Cc1ccccc1)C(=O)Nc1ccc([N+](=O)[O-])cc1 [Suc-Phe-pNA]	-
Pro-Lys-Gly-Gly (PKGG)	-
RPPGFSPFR [Bradykinin]	+
Gly-Pro-Arg-Pro (GPRP)	-
Leu-Gly-Gly	-
Z-Phe-Ala	-
β-Casein, f108-113: β-Casein fragment 108-113, 6 amino acid residues (EMPFPK; UniProt P02666 123-128, looked up, fragment)	+
Ala-Ala-Ala-Ala (AAAA)	+
NCCCC[C@H](N)C(=O)Nc1ccc([N+](=O)[O-])cc1 [Lys-pNA]	-
B1	-
B2	-

same assay, conditions: substrate + LAP (leucine aminopeptidase); pH 7.0, 30° C., 5.0 hrs

Molecule	Hydrolysis
COC(=O)CCC(=O)N[C@@H](CCCNC(=N)N)C(=O)N1CCC[C@H]1C(=O)N[C@@H](Cc1ccc(O)cc1)C(=O)Nc1ccc([N+](=O)[O-])cc1 [MeO-Suc-Arg-Pro-Tyr-pNA] (MeOSuc-Arg-Pro-Tyr-pNA)	+

target: T1, endopeptidase produced by Lactobacillus helveticus; assay: not given; assay type: biochemical; conditions: 0.001 to 2.0 mM inhibitor, 30 min. at 4° C.; 1 mM Tyr-Gly-Gly-Phe-Met, pH 7.0, 30° C.
Procedure: (§1) The influences of enzyme inhibitors on the-activity of the endopeptidase of the present invention was determined. The purified endopeptidase (0.5 μg protein/ml) in 40 mM HEPES, pH7.0, was incubated for 30 min. at 4° C. with 0.001 to 2.0 mM enzyme inhibitors. After pre-incubating the enzyme mixture for 5 min. at 30° C., 1 mM Tyr-Gly-Gly-Phe-Met (SEQ ID NO: 2) was added to start the reaction and the mixture was incubated for 20 min. at 30° C. The reaction was stopped by 10% acetic acid.
The enzyme activity was determined by reversed phase chromatography.

Molecule	inhibition of endopeptidase activity by enzyme inhibitors
c1cnc2c(c1)ccc1cccnc12 [1,10-phenanthroline]	inhibited; also recorded: inhibition
O=S(=O)(O)c1cc[c]([Hg][Cl])cc1 [p-CMBS, p-chloromercuribenzenesulfonic acid]	inhibited; also recorded: inhibition
O=S(=O)(F)Cc1ccccc1 [phenylmethylsulfonyl fluoride]	no inhibition

same assay, conditions: pH 7

Molecule	inhibition of endopeptidase activity by enzyme inhibitors
O=C(O)CN(CCN(CC(=O)O)CC(=O)O)CC(=O)O [EDTA, ethylenediaminetetraacetic acid]	inhibited; also recorded: inhibition
O=C(O)CI [iodoacetic acid]	no inhibition

target: T1, endopeptidase produced by Lactobacillus helveticus; assay: Influence of metal ions on endopeptidase activity; assay type: biochemical; conditions: method according to Test example 7
Procedure: as §1
The influences of metal ions to the activity of the endopeptidase of the present invention was determined similarly by the method according to Test example 7. The enzyme activity was inhibited by Cu^2+, Zn^2+ and Fe^2+.

Molecule	inhibition of endopeptidase activity by metal ions
[Fe+2] [Fe^2+]	inhibited
[Cu+2] [Cu^2+]	inhibited
[Zn+2] [Zn^2+]	inhibited
